These results are taken from patent publication US10030002B2, “Coumarin derivative for detection of cysteine and process for the synthesis thereof” (COUNCIL OF SCIENTIFIC & INDUSTRIAL RESEARCH, priority 2015, dated 2018).

SMILES strings stand for the structures.

For orientation: pKa means the pH at which an ionisable group is half protonated.

For series [1] the following is noted: thiol pKa; cited from earlier work.
The conditions of series [2]: cited from earlier work.
Series [3] in a line: Fluorescence response of probe L to amino acids and Cys in HEPES:CH3CN (9:1), pH 7. An excerpt: In the absence of Cys, probe L is almost non fluorescent (Φf=0.06), upon addition of Cys (0-1000 equiv.), fluorescence intensity is increased remarkably up to 7 fold with an emission band centered at 524 nm (λExt=445 nm) (FIG. 2B). […] The quantum yield of probe after the addition of Cys increases (Φf=0.32) with respect to fluorescein (Φf=0.92). The fluorescence turn on response of the probe upon addition of Cys is due to the formation of 1,4 conjugate addition product, which blocks the PET quenching by nitro olefin and also ICT process from diethylamino to nitro olefin unit. The results were in well agreement with our proposed hypothesis. […] The fluorescence intensities of the probe at 524 nm show a good linear relationship with the concentration of Cys between 0 to 1000 μM. The detection limit of Cys is determined as 23.65 nM (23.65×10^−9) based on S/N=3. (FIG. 8)
Cys being a low pKa protein thiol, at neutral pH, the thiolate/thiol ratio is higher for Cys than for Hcy and GSH, which results in greater reactivity of Cys with the probe. This could be the reason for getting selectivity to Cys over Hcy and GSH at pH 7. Also pH 7, being neutral, much suitable for biological studies.
(§1) 5×10^−3M stock solution of 7-(diethylamino)-3-((E)-4-((E)-2-nitrovinyl)styryl)-2H-chromen-2-one was prepared in CH3CN and the same solution was used for all the studies after appropriate dilution. Unless and otherwise mentioned, 10 mM and pH 7 solution of aq. HEPES buffer was used for all spectroscopic studies. All amino acid solutions of 1.0×10^−1M were prepared in HEPES buffer (pH 7). For spectroscopic measurements, stock solution of the probe was further diluted by using HEPES:CH3CN (9:1) mixture and the effective final concentration was made as 10 μM. All luminescence measurements were done using λext=445 nm with an emission slit width of 2 nm. The fluorescence quantum yield was determined according to literature method using fluorescein (in 0.1M NaOH) as reference (Φf=0.92).

Series [4] can be described thus: UV-Vis absorption response of probe L to amino acids and Cys.
Source text: With the addition of Cys (0-100 equiv.), absorption band at 468 nm gradually decreases and a new band appeared at 438 nm with a visible colour change from red to green (FIG. 1B). A hypsochromic shift (˜30 nm) with three well defined isosbestic points are observed at 445 nm, 372 nm and 325 nm. This Cys-induced hypsochromic shift indicates the suppression of ICT process from donor diethylamino unit to acceptor nitroalkene unit.
as §1

Series [5] can be described thus: Time dependent fluorescence response of probe L with biothiols. The protocol:
Time dependent fluorescence response of probe L or compound of Formula (L) is carried out with 200 equiv of Cys. […] (FIG. 4).

For a further series, the system named is amino acylase-1. Put plainly: Detection of Cys generated enzymatically from NAC. It counts as biochemical. An excerpt: In another preferred embodiment, the detection of Cys generated in an enzymatic reaction is studied. N-acetyl-cysteine (NAC) is employed as substrate and amino acylase-1 as an enzyme. N-acetyl-cysteine, an acetylated form of Cys, a well known pro-drug used as a cysteine supplement in treatment of glutathione replenishment, acetaminophen over dose, HIV patients etc. NAC supplement releases the Cys inside the cells. […] Amino acylases are a class of enzymes which specifically hydrolyses the N-acetylated amino acids to release the free amino acids. There are many amino acylases known for de-acetylation of acetylated amino acids, among them Amino acylase-1 is well known for its ability to hydrolyse acetylated cysteine.
Cipla made effervescent tablets of N-Acetyl-Cysteine were purchased from commercially available sources. Based on the quantity of NAC present in the tablet, 1.0×10^−1M tablet solution was prepared in 10 mM aq.
HEPES buffer solution (pH7). Enzyme solution was prepared according to the requirement by dissolving 1 mg/ml in 10 mM aq.HEPES buffer solution (pH7). A fixed concentration of NAC (200 equiv.) was added to the 10 μM probe in HEPES:CH3CN (9:1, v/v). Since 1 mg of solid enzyme contains 3301 units of protein and 1 unit can hydrolyse 1 μM of substrate, accordingly enzyme concentration was varied with respect to the substrate concentration.
10 μM of 7-(diethylamino)-3-((E)-4-((E)-2-nitrovinyl)styryl)-2H-chromen-2-one is treated with 200 equiv. of NAC and different concentration of enzyme (0-2000 units) was added and the resulting solution was incubated at 37° C. for the time period ranging from 45 to 50 mins. Initially there is no fluorescence because NAC cannot bind to probe and fluorescence is turned on gradually with time, which indicates the hydrolysis of NAC by Amino acylase-1 to release of Cys. Fluorescence intensity increases with the increase in concentration of enzyme (0 to 2000 units) as more and more amounts of Cys was released from NAC by the enzymatic activity (FIG. 6). […]

Series [6] can be described thus: TLC test strips coated with probe L. The protocol:
The same strategy is further extended to detect Cys in blood plasma and the Cys released in an enzymatic reaction as well. […] The same methodology is further extended to detect the enzymatically generated Cys from NAC.
TLC test strips were prepared by coating 5 μM of 7-(diethylamino)-3-((E)-4-((E)-2-nitrovinyl)styryl)-2H-chromen-2-one solution in acetonitrile on silica TLC plates. 5 μl of Cys (1.0×10^−1M) in 10 mM aq.HEPES buffer (pH7) was added on it, dried and the visual as well as fluorescence colour changes were observed after 5 min. The same was repeated for Hcy and GSH as well. To detect Cys in blood plasma, 20 μl of blood plasma was diluted (10 μl plasma+10 μl buffer) was added on probe quoted TLC plate. Same methodology was repeated for enzymatic reaction on TLC plate by using 10 μl of NAC and amino acylase-1 enzyme.

In a further series the test system is whey protein. Put plainly: Detection of cysteine in whey protein from raw milk. The following applies: L 10 μM, whey 500 μl, NAC 0-500 μl. An excerpt: Suitability of this reagent for specific recognition and estimation of Cys-residues present in natural milk proteins was also explored. For this study whey protein was isolated from milk. Initially some fluorescence was observed, which is due to the presence of free Cys. Then NAC tablets are used to reduce the disulfides present in whey. […] So, this reagent could be used as protein labeling agent to specifically label the Cys present in proteins.
Raw milk was subjected to fermentation and the liquid whey which was settled above after fermentation process was separated by filtration. A varying amount of whey ranging from 500 μl was added to Probe L (7-(diethylamino)-3-((E)-4-((E)-2-nitrovinyl)styryl)-2H-chromen-2-one) (10 μM) in HEPES:ACN at pH 7. Varying concentrations of N-Acetyl Cysteine (0-500 μl) was added to each of the above solution in order to hydrolyse the bound Cysteine present in whey protein (NAC solution was prepared by dissolving NAC tablets in buffer as mentioned in the enzymatic study). Luminescence changes were recorded after 45-50 minutes of incubation at room temperature. The remaining derivatives of probe L may give similar kind of response.

A short description of series [7]: Comparison of Formula (L) with prior art coumarin derivatives. An excerpt: In still yet another embodiment, the present invention provides the comparison study of said coumarin derivatives of Formula (L) with previous prior arts coumarin derivative.
Setting [8] is: HEPES:CH3CN (9:1), pH 7, with respect to fluorescein.

In the case of `N[C@@H](CCC(=O)N[C@@H](CS)C(=O)NCC(=O)O)C(=O)O` [GSH, Glutathione], the pKa in series [1] is 9.5.
Take `CCN(CC)c1ccc2cc(/C=C/[N+](=O)[O-])c(=O)oc2c1`: the “sensitivity or specificity of prior art probe (comparison)” value in [2] is given as “Not specific to Cys”.
Consider `O=C(/C=C/c1ccc2ccccc2n1)c1cc2cc3c4c(c2oc1=O)CCCN4CCC3`, for which, in series [2], the “sensitivity or specificity of prior art probe (comparison)” value is listed as “Detect only micromolar range”.
Turning to `N[C@@H](CCS)C(=O)O` [Hcy, Homocysteine], the pKa in [1] was 10.0.
As for `CCN(CC)c1ccc2cc(/C=C/c3ccc(/C=C/[N+](=O)[O-])cc3)c(=O)oc2c1` [L, 7-(diethylamino)-3-((E)-4-((E)-2-nitrovinyl)styryl)-2H-chromen-2-one], the “linear range of fluorescence intensity at 524 nm with concentration of Cys” value in series [3] was 0 to 1000 µM. Moreover, in series [3] (Cys, Hcy and GSH with increasing pH), the pH dependent selectivity result is given as “selectivity of probe to Cys at pH 7”. Further, in series [3] (setting [8]), the “fluorescence quantum yield (Φf) after the addition of Cys” value is 0.32 and the “fluorescence quantum yield (Φf) in the absence of Cys” value came to 0.06. Also, in series [3] (L 10 μM, Cys 0-1000 equiv., emission 524 nm, λExt=445 nm), the “fluorescence intensity increase upon addition of Cys” value was “up to 7 fold”. The “fluorescence response to amino acids (selectivity)” value in [3] (L 10 μM, amino acids 200 equiv., pH 7) is listed as “Only Cys gives an enhancement in the fluorescence”. Also, the “detection limit of Cys” value in series [3] (based on S/N=3, fluorescence at 524 nm) worked out at 23.65 nM. Further, the “fluorescence response to Hcy and GSH” value in series [3] (identical conditions, pH 7) was “does not give any significant changes in fluorescence”. Moreover, the “hypsochromic shift of the absorption band upon addition of Cys” value in series [4] (Cys 0-100 equiv., 468 nm to 438 nm) is given as ~30 nm. The “absorption response to amino acids (selectivity)” value in [4] (L 10 μM, amino acids 100 equiv., pH 7) is “Only Cys gives an observable change in absorption spectra”. For the same compound, the “time to completion of the reaction with Cys” value in series [5] (200 equiv of Cys) was 25 min. In addition, the “time dependent fluorescence with Hcy and GSH” value in [5] (200 equiv. each) is reported as “no significant changes in the fluorescence observed”. In addition, the “fluorescence after addition of aminoacylase-1” value with amino acylase-1 (L 10 μM, NAC 200 equiv., enzyme 0-2000 units, 37° C.) is recorded as “fluorescent intensity gradually increases”. Moreover, in the series with amino acylase-1 (L 10 μM, NAC 200 equiv., pH 7), the “emission at 520 nm with NAC in absence of aminoacylase-1” value is recorded as “no change in emission intensity was observed”. The “reaction time at room temperature” value in the series with amino acylase-1 (room temperature) is “more than 90 min”. For the same compound, the “response of probe coated TLC plates to Hcy and GSH” value in series [6] is recorded as “does not give any observable visible as well as fluorescence changes”. Besides, the “colour change of probe coated TLC plates with Cys” value in [6] (5 μM L on silica TLC, 365 nm UV lamp) is “changes from red to yellowish green”. The “fluorescence with whey and NAC” value with whey protein is “fluorescence intensity of L gradually increases”. Also, the “sensitivity of Cys detection (comparison)” value in [7] was “in nanomolar range”.
